Active and inactive are the calls of the source.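 The calls were made as follows: active = parasite count per well reduced by over 3 SD from the mean, with host cell number above 80% of untreated; inactive = the rest.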
Test system: L. donovani amastigotes in THP-1 macrophages, DAPI imaging, 72 h
Experiment: antileishmanial activity in infected macrophages – imaging, THP-1 host macrophages, single concentration (AID 977614);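 also: signal is the parasite per host cell ratio from DAPI stained kinetoplasts and nuclei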

Compound | AC50
CN1[C@H](CO)[C@@H]2c3ccccc3N(C(=O)Nc3cc(F)ccc3F)C[C@@H]21 | > 10 µM (inactive)
C[C@H](CO)N1C[C@H](C)[C@@H](CN(C)Cc2ccc3cccnc3c2)OCc2cnnn2CCCC1=O | > 10 µM (inactive)
COCC(=O)NC[C@@H]1[C@H](c2ccccc2)[C@@H](CO)N1C(=O)c1ccccc1 | > 10 µM (inactive)
CC(=O)N1[C@H](CO)[C@H](c2ccccc2)[C@H]1CN(CC(C)C)C(=O)c1ccccn1 | > 10 µM (inactive)
CN(C[C@@H]1[C@@H](c2ccccc2)[C@H](CO)N1Cc1ccccn1)S(C)(=O)=O | > 10 µM (inactive)
OC[C@@H]1[C@@H]2c3ccccc3NC[C@@H]2N1CC1CCOCC1 | > 10 µM (inactive)
O=C(Cc1cccnc1)N1[C@H](CO)[C@H](c2ccccc2)[C@@H]1CNCC1CCC1 | > 10 µM (inactive)
Cc1noc(C)c1S(=O)(=O)N(C)C[C@H]1OCc2cn(nn2)CCCC(=O)N([C@H](C)CO)C[C@@H]1C | > 10 µM (inactive)
CCC(=O)N1[C@H](CO)[C@H](c2ccc(C#CC(C)(C)O)cc2)[C@@H]1CN(C)C(C)=O | > 10 µM (inactive)
O=C(C1CCOCC1)N1C[C@@H]2[C@H](c3ccccc31)[C@H](CO)N2C(=O)Cc1ccccn1 | > 10 µM (inactive)
CNC[C@H]1OCc2cnnn2CCCC(=O)N([C@@H](C)CO)C[C@H]1C | > 10 µM (inactive)
CC(=O)N1[C@H](CO)[C@H](c2ccccc2)[C@H]1CN(CC1CCC1)C(=O)CN(C)C | > 10 µM (inactive)
CCN(C[C@@H]1[C@H](c2ccccc2)[C@@H](CO)N1CC1CC1)C(=O)c1ccccn1 | > 10 µM (inactive)
COc1ccc(CN(C)C[C@@H]2OCc3cnnn3CCCC(=O)N([C@H](C)CO)C[C@@H]2C)cc1 | > 10 µM (inactive)
CN(C[C@@H]1N[C@H](CO)[C@H]1c1ccccc1)C(=O)c1ccccn1 | > 10 µM (inactive)
O=C(c1ccncc1)N1C[C@H]2[C@@H](c3ccccc31)[C@H](CO)N2C(=O)CN1CCOCC1 | > 10 µM (inactive)
O=C(C1CCC1)N1C[C@H]2[C@@H](c3ccccc31)[C@@H](CO)N2Cc1ccccc1 | > 10 µM (inactive)
C[C@H]1CN([C@@H](C)CO)C(=O)CCCn2nncc2CO[C@@H]1CN(C)C(=O)c1ccc(N2CCN(C)CC2)cc1 | > 10 µM (inactive)
C[C@@H]1CN([C@@H](C)CO)C(=O)CCCn2cc(nn2)CO[C@@H]1CN(C)S(=O)(=O)c1ccc(-n2cccn2)cc1 | > 10 µM (inactive)
Cc1noc(C)c1NC(=O)N(C)C[C@@H]1OCc2cnnn2CCCC(=O)N([C@@H](C)CO)C[C@@H]1C | > 10 µM (inactive)
O=C(Nc1cccc(Cl)c1)N1C[C@@H]2[C@H](c3ccccc31)[C@@H](CO)N2Cc1cccnc1 | > 10 µM (inactive)
CC(C)NC(=O)N1[C@H](CO)[C@@H]2c3ccccc3N(C)C[C@@H]21 | > 10 µM (inactive)
C[C@H](CO)N1C[C@H](C)[C@H](CN(C)C(=O)Nc2ccc3c(c2)OCO3)OCc2cn(nn2)CCCC1=O | > 10 µM (inactive)
CC(C)NC(=O)N1[C@H](CO)[C@H]2c3ccccc3NC[C@H]21 | > 10 µM (inactive)
C[C@@H]1CN([C@H](C)CO)C(=O)CCCn2nncc2CO[C@@H]1CN(C)CC1CCCCC1 | > 10 µM (inactive)
CC(=O)N1[C@H](CN(CC(C)C)C(=O)c2ccccn2)[C@@H](c2ccccc2)[C@@H]1CO | > 10 µM (inactive)

Compound | AC50
CN(C[C@H]1[C@H](c2ccccc2)[C@@H](CO)N1CC1CC1)C(=O)c1ccc(F)cc1 | > 10 µM (inactive)
C/C=C/c1ccc([C@H]2[C@@H](CO)N(C(=O)C3CC3)[C@@H]2CNC(=O)NC(C)C)cc1 | > 10 µM (inactive)
C[C@@H]1CN([C@H](C)CO)C(=O)CCCn2nncc2CO[C@H]1CN(C)C(=O)c1ccc2ccn(C)c2c1 | > 10 µM (inactive)
CCC(=O)N1[C@H](CO)[C@@H](c2ccccc2)[C@@H]1CN(CC)C(=O)c1cccc(F)c1 | > 10 µM (inactive)
COCC(=O)N1[C@@H](CO)[C@@H]2c3ccccc3NC[C@@H]21 | > 10 µM (inactive)
CC(C)NC[C@@H]1[C@H](c2ccc(C3=CCCCC3)cc2)[C@H](CO)N1S(C)(=O)=O | > 10 µM (inactive)
C[C@H](CO)N1C[C@H](C)[C@H](CN(C)C(=O)CCC(F)(F)F)OCc2cn(nn2)CCCC1=O | > 10 µM (inactive)
CCNC[C@H]1[C@@H](c2ccccc2)[C@@H](CO)N1C(=O)Cc1ccccn1 | > 10 µM (inactive)
COCC(=O)N1C[C@H]2[C@@H](c3ccccc31)[C@H](CO)N2C(=O)c1ccccc1F | > 10 µM (inactive)
CC(=O)N1[C@H](CO)[C@H](c2ccccc2)[C@H]1CN(C(=O)c1ccccc1F)C(C)C | > 10 µM (inactive)
C[C@@H]1CN([C@H](C)CO)C(=O)CCCn2nncc2CO[C@@H]1CN(C)Cc1ccc(C(=O)Nc2ccccc2N)cc1 | > 10 µM (inactive)
CCCN1[C@H](CO)[C@H](c2ccc(-c3ccccc3F)cc2)[C@@H]1CNC(=O)C1CCC1 | > 10 µM (inactive)
C[C@H](CO)N1C[C@H](C)[C@H](CN(C)S(=O)(=O)c2cccc(C#N)c2)OCc2cn(nn2)CCCC1=O | > 10 µM (inactive)
COc1ccccc1NC(=O)N1C[C@H]2[C@@H](c3ccccc31)[C@H](CO)N2C(=O)C1CCCC1 | > 10 µM (inactive)
O=C(NC[C@H]1[C@H](c2ccccc2)[C@H](CO)N1C(=O)C1CCC1)NC1CCCC1 | > 10 µM (inactive)
CCN(C[C@H]1[C@@H](c2ccccc2)[C@@H](CO)N1C(=O)COC)S(C)(=O)=O | > 10 µM (inactive)
C/C=C/c1ccc([C@H]2[C@@H](CO)N(c3nc(C)c(C)s3)[C@@H]2CNCC(C)C)cc1 | > 10 µM (inactive)
COc1cccc(NC(=O)N2[C@H](CO)[C@@H](c3ccccc3)[C@H]2CNCC(C)C)c1 | > 10 µM (inactive)
C[C@@H]1CN([C@@H](C)CO)C(=O)CCCn2cc(nn2)CO[C@H]1CN(C)Cc1ccccc1 | > 10 µM (inactive)
COCC(=O)N1[C@H](CO)[C@@H]2c3ccccc3NC[C@@H]21 | > 10 µM (inactive)
COCC(=O)N1C[C@H]2[C@@H](c3ccccc31)[C@@H](CO)N2C(=O)c1ccccc1F | > 10 µM (inactive)
O=C(C1CCCCC1)N1[C@H](CO)[C@H]2c3ccccc3N(S(=O)(=O)c3ccccc3)C[C@H]21 | > 10 µM (inactive)
C[C@@H]1CN([C@@H](C)CO)C(=O)CCCn2nncc2CO[C@@H]1CN(C)C(=O)c1cc(-c2ccccc2)on1 | > 10 µM (inactive)
O=C(Nc1ccc(F)cc1)N1C[C@H]2[C@@H](c3ccccc31)[C@H](CO)N2C(=O)c1ccncc1 | > 10 µM (inactive)
O=C(NC[C@@H]1[C@@H](c2ccccc2)[C@@H](CO)N1Cc1ccccn1)C1CCCC1 | > 10 µM (inactive)
O=C(Nc1ccccc1Cl)N1C[C@H]2[C@@H](c3ccccc31)[C@H](CO)N2C(=O)c1cccnc1 | > 10 µM (inactive)

Compound | AC50
Cc1noc(C)c1S(=O)(=O)N(C)C[C@@H]1OCc2cn(nn2)CCCC(=O)N([C@H](C)CO)C[C@@H]1C | > 10 µM (inactive)
C[C@@H]1CN([C@H](C)CO)C(=O)CCCn2nncc2CO[C@@H]1CN(C)Cc1ccc2cccnc2c1 | > 10 µM (inactive)
CCCN(C[C@H]1N[C@H](CO)[C@@H]1c1ccccc1)C(=O)COC | > 10 µM (inactive)
CC(C)N(C[C@@H]1[C@H](c2ccccc2)[C@@H](CO)N1S(C)(=O)=O)C(=O)CN(C)C | > 10 µM (inactive)
C[C@@H]1CN([C@H](C)CO)C(=O)CCCn2nncc2CO[C@@H]1CN(C)C(=O)Nc1ccccc1C(F)(F)F | > 10 µM (inactive)
CCC(=O)N1[C@H](CO)[C@@H]2c3ccccc3N(C(=O)Nc3ccc(Cl)cc3)C[C@@H]21 | > 10 µM (inactive)
CC(C)NC(=O)N1[C@@H]2CN(C)c3ccccc3[C@@H]2[C@@H]1CO | > 10 µM (inactive)
COCC(=O)N1C[C@@H]2[C@H](c3ccccc31)[C@@H](CO)N2C(=O)c1ccccc1F | > 10 µM (inactive)
O=C(Nc1ccc(Cl)cc1)N1C[C@@H]2[C@H](c3ccccc31)[C@H](CO)N2CC1CCCCC1 | > 10 µM (inactive)
COCC(=O)N(C)C[C@H]1[C@H](c2ccccc2)[C@H](CO)N1C(=O)Cc1ccncc1 | > 10 µM (inactive)
C/C=C/c1ccc([C@H]2[C@@H](CO)N(CC3CCCC3)[C@H]2CNS(C)(=O)=O)cc1 | > 10 µM (inactive)
O=C(C1CCOCC1)N1C[C@H]2[C@@H](c3ccccc31)[C@@H](CO)N2C(=O)Nc1ccccc1F | > 10 µM (inactive)
CCN(C[C@H]1[C@H](c2ccccc2)[C@H](CO)N1CC1CC1)C(=O)c1ccccn1 | > 10 µM (inactive)
COc1ccccc1S(=O)(=O)N(C)C[C@H]1OCc2cn(nn2)CCCC(=O)N([C@H](C)CO)C[C@H]1C | > 10 µM (inactive)
C[C@H]1CN([C@@H](C)CO)C(=O)CCCn2nncc2CO[C@H]1CN(C)C(=O)Nc1ccc2c(c1)OCCO2 | > 10 µM (inactive)
O=C(NC[C@@H]1[C@@H](c2ccccc2)[C@H](CO)N1Cc1cccnc1)c1ccccn1 | > 10 µM (inactive)
CCN(C[C@@H]1N[C@@H](CO)[C@H]1c1ccccc1)C(=O)c1ccncc1 | > 10 µM (inactive)
O=C(NC[C@H]1[C@@H](c2ccccc2)[C@H](CO)N1C(=O)Cc1ccncc1)C1CCC1 | > 10 µM (inactive)
C[C@@H]1CN([C@@H](C)CO)C(=O)CCCn2nncc2CO[C@@H]1CN(C)CC1CCCCC1 | > 10 µM (inactive)
CCCNC(=O)N1C[C@H]2[C@@H](c3ccccc31)[C@H](CO)N2Cc1cccc(OC)c1 | > 10 µM (inactive)
O=C(c1ccc2c(c1)OCO2)N1C[C@@H]2[C@H](c3ccccc31)[C@@H](CO)N2Cc1cccnc1 | > 10 µM (inactive)
C[C@@H]1CN([C@@H](C)CO)C(=O)CCCn2cc(nn2)CO[C@@H]1CN(C)C(=O)NC1CCCCC1 | > 10 µM (inactive)
COCC(=O)NC[C@@H]1[C@@H](c2ccccc2)[C@@H](CO)N1C(=O)c1ccccc1 | > 10 µM (inactive)
C/C=C/c1ccc([C@@H]2[C@H](CO)N[C@H]2CN(CC)C(=O)CN2CCOCC2)cc1 | > 10 µM (inactive)
COc1ccc(C(=O)N2C[C@H]3[C@@H](c4ccccc42)[C@@H](CO)N3C(=O)Cc2ccccn2)cc1 | > 10 µM (inactive)
COc1ccc(CN(C)C[C@H]2OCc3cnnn3CCCC(=O)N([C@H](C)CO)C[C@H]2C)cc1 | > 10 µM (inactive)

From PubChem BioAssay AID977614 (Broad Institute, 2014)
